This is an account of results in patent publication US20070293484A1, “Thiophene Heteroaryl Amines” (SUGEN, INC., priority 2004, published 2007).

Molecules are shown by their SMILES.

The target of test [1] is T1, GST-Flk1 (Mus musculus, UniProt P35918).
T1 construct: GST-Flk1cd purified from sf9 recombinant baculovirus transformation (SUGEN, Inc.); host or cells: Sf9 insect cells (recombinant baculovirus)
The test can be described thus: GST-FLK-1 bioassay (ELISA, tyrosine kinase activity on poly(glu,tyr)). It is filed as biochemical. As for the experimental part:
The assays described herein are performed in an ELISA (Enzyme-Linked Immunosorbent Sandwich Assay) format (Voller, et al., 1980, “Enzyme-Linked Immunosorbent Assay,” Manual of Clinical Immunology, 2d ed., Rose and Friedman, Am. Soc. Of Microbiology, Washington, D.C., pp. 359-371). The general procedure is as follows: a compound is introduced to cells expressing the test kinase, either naturally or recombinantly, for a selected period of time after which, if the test kinase is a receptor, a ligand known to activate the receptor is added. The cells are lysed and the lysate is transferred to the wells of an ELISA plate previously coated with a specific antibody recognizing the substrate of the enzymatic phosphorylation reaction. Non-substrate components of the cell lysate are washed away and the amount of phosphorylation on the substrate is detected with an antibody specifically recognizing phosphotyrosine compared with control cells that were not contacted with a test compound.
This assay analyzes the tyrosine kinase activity of GST-Flk1 on poly(glu,tyr) peptides.
• 1. Corning 96-well ELISA plates (Corning Catalog No. 5805-96). • 2. poly(glu,tyr) 4:1, lyophilizate (Sigma Catalog #P0275). • 3. Preparation of poly(glu,tyr)(pEY) coated assay plates: Coat 2 ug/well of poly(glu,tyr)(pEY) in 100 μL PBS, hold at room temperature for 2 hours or at 4° C. overnight. Cover plates well to prevent evaporation. • 4. PBS Buffer: for 1 L, mix 0.2 g KH2PO4, 1.15 g Na2HPO4, 0.2 g KCl and 8 g NaCl in approx. 900 ml dH2O. When all reagents have dissolved, adjust the pH to 7.2 with HCl. Bring total volume to 1 L with dH2O. • 5. PBST Buffer: to 1 L of PBS Buffer, add 1.0 ml Tween-20. • 6. TBB—Blocking Buffer: for 1 L, mix 1.21 g TRIS, 8.77 g NaCl, 1 ml TWEEN-20 in approximately 900 ml dH2O. Adjust pH to 7.2 with HCl. Add 10 g BSA, stir to dissolve. Bring total volume to 1 L with dH2O. Filter to remove particulate matter. • 7. 1% BSA in PBS: To make a 1× working solution, add 10 g BSA to approx. 990 ml PBS buffer, stir to dissolve. Adjust total volume to 1 L with PBS buffer, filter to remove particulate matter. • 8. 50 mM Hepes pH 7.5. • 9. GST-Flk1cd purified from sf9 recombinant baculovirus transformation (SUGEN, Inc.). • 10. 4% DMSO in dH2O. • 11. 10 mMATP in dH2O. • 12. 40 mM MnCl2 • 13. Kinase Dilution Buffer (KDB): mix 10 ml Hepes (pH 7.5), 1 ml 5M NaCl, 40 μL 100 mM sodium orthovanadate and 0.4 ml of 5% BSA in dH2O with 88.56 ml dH2O. • 14. NUNC 96-well V bottom polypropylene plates, Applied Scientific Catalog #AS-72092 • 15. EDTA: mix 14.12 g ethylenediaminetetraacetic acid (EDTA) to approx. 70 ml dH2O. Add 10 N NaOH until EDTA dissolves. Adjust pH to 8.0. Adjust total volume to 100 ml with dH2O. • 16. 1^0 Antibody Dilution Buffer: mix 10 ml of 5% BSA in PBS buffer with 89.5 ml TBST. • 17. Anti-phosphotyrosine monoclonal antibody conjugated to horseradish peroxidase (PY99 HRP, Santa Cruz Biotech). • 18. 2,2′-Azinobis(3-ethylbenzthiazoline-6-sulfonic acid (ABTS, Moss, Cat. No. ABST). • 19. 10% SDS. Procedure: • 1. Coat Corning 96-well ELISA plates with 2 μg of polyEY peptide in sterile PBS as described in step 3 of Materials and Reagents. • 2. Remove unbound liquid from wells by inverting plate. Wash once with TBST. Pat the plate on a paper towel to remove excess liquid. • 3. Add 100 μl of 1% BSA in PBS to each well. Incubate, with shaking, for 1 hr. at room temperature. • 4. Repeat step 2. • 5. Soak wells with 50 mM HEPES (pH7.5) (150 μl/well). • 6. Dilute test compound with dH2O/4% DMSO to 4 times the desired final assay concentration in 96-well polypropylene plates. • 7. Add 25 μl diluted test compound to ELISA plate. In control wells, place 25 μl of dH2O/4% DMSO. • 8. Add 25 μl of 40 mM MnCl2 with 4×ATP (2 μM) to each well. • 9. Add 25 μl 0.5M EDTA to negative control wells. • 10. Dilute GST-Flk1 to 0.005 μg (5 ng)/well with KDB. • 11. Add 50 μl of diluted enzyme to each well. • 12. Incubate, with shaking, for 15 minutes at room temperature. • 13. […]

The target of test [2] is T2, PDGFR (Homo sapiens, UniProt P09619).
T2 construct: SUGEN, Inc; host or cells: NIH 3T3 cell lysate; receptor captured on plate with monoclonal anti-PDGFR antibody 28D4C10
As to the kind of experiment: PDGFR bioassay (ELISA, in vitro kinase activity). It is filed as biochemical. The following applies: PDGFR-β expressing NIH 3T3 cell lysate; read-out: IC50 (μM) PDGF-R.

T2 sequence (P09619 33-1106, species assumed): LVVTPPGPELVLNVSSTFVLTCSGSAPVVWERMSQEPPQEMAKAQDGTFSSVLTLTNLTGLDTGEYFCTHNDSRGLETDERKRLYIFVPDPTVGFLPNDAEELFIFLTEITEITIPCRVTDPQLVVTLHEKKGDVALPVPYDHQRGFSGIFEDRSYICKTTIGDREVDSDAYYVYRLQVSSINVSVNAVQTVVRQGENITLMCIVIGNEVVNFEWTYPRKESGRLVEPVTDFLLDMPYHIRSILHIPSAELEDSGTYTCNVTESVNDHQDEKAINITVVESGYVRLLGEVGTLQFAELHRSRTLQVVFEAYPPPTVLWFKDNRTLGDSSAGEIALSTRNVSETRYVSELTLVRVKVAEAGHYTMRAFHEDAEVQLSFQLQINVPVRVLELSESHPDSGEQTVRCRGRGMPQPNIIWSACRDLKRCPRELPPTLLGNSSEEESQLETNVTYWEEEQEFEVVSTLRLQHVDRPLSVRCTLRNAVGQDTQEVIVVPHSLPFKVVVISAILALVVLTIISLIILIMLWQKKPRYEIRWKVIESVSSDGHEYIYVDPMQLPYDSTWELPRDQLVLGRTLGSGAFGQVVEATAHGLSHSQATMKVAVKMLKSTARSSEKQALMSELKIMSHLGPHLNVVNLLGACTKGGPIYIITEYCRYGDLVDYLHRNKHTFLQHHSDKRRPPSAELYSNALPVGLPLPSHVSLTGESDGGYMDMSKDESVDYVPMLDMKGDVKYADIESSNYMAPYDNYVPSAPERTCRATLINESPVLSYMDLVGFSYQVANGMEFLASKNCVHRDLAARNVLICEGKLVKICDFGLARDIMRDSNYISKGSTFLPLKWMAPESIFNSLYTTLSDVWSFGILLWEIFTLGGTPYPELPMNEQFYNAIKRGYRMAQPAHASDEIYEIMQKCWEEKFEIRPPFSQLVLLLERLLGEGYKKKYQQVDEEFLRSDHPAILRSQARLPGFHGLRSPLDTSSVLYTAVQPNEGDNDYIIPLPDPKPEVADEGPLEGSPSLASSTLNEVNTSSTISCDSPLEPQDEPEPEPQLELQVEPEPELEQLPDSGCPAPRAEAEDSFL
T1 sequence (P35918 784-1345 limits assumed): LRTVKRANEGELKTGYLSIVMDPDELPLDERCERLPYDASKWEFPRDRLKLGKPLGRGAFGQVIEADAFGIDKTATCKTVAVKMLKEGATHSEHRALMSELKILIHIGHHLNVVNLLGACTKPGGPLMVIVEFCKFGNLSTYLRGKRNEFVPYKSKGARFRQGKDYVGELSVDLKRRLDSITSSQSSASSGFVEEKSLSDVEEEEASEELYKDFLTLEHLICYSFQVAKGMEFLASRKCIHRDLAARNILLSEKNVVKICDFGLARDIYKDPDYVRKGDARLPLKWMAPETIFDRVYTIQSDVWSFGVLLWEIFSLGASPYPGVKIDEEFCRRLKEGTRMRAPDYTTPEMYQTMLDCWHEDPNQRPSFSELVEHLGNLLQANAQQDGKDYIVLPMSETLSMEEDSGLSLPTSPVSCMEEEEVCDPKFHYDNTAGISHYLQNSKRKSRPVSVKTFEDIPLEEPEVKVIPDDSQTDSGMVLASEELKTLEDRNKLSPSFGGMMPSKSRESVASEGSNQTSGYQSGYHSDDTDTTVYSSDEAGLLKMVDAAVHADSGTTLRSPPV

As for `Oc1ccc(Nc2ncc(-c3ccsc3)cn2)cc1` [Example 1, 4-[(5-thien-3-ylpyrimidin-2-yl)amino]phenol], the IC50 in test [1] amounted to 4.5 µM; in test [2], 0.52 µM.
In the same order, the values of `CC(=O)Nc1ccc(Nc2ncc(-c3ccsc3)cn2)cc1` [Example 2, N-{4-[(5-thien-3-ylpyrimidin-2-yl)amino]phenyl}acetamide] are 3.74 µM and 0.07 µM.
In the same order, the values of `c1cc(-c2cnc(Nc3ccc(N4CCOCC4)cc3)nc2)cs1` [Example 3, N-(4-morpholin-4-ylphenyl)-5-thien-3-ylpyrimidin-2-amine] are more than 20 µM and 0.15 µM.
In the same order, the values of `Nc1ccc(C(=O)Nc2ccc(Nc3ncc(-c4ccsc4)cn3)cc2)cc1` [Example 4, 4-amino-N-{4-[(5-thien-3-ylpyrimidin-2-yl)amino]phenyl}benzamide] are more than 20 µM and 0.5 µM.
`COc1ccc(Nc2ncc(-c3ccsc3)cn2)cc1` [Example 5, N-(4-methoxyphenyl)-5-thien-3-ylpyrimidin-2-amine]: the IC50 was more than 20 µM in test [1] and 0.55 µM in test [2].
In the same order, the values of `Nc1cccc(Nc2ncc(-c3ccsc3)cn2)c1` [Example 6, N-(5-thien-3-ylpyrimidin-2-yl)benzene-1,3-diamine] are 1.53 µM and 0.06 µM.
In the same order, the values of `O=C(O)c1cccc(Nc2ncc(-c3ccsc3)cn2)c1` [Example 7, 3-[(5-thien-3-ylpyrimidin-2-yl)amino]benzoic acid] are 16.2 µM and 7.39 µM.
As to `Nc1ccc(Nc2ncc(-c3ccsc3)cn2)cc1` [Example 8, N-(5-thien-3-ylpyrimidin-2-yl)benzene-1,4-diamine], the IC50 in test [1] came out at 4.14 µM; in test [2], 0.55 µM.
The like results for `COc1ccc(NC(=O)Nc2ncc(-c3ccsc3)cn2)cc1` [Example 9, N-(4-methoxyphenyl)-N′-(5-thien-3-ylpyrimidin-2-yl)urea] were, in that order, more than 20 µM and more than 20 µM.
In the same order, the values of `O=C(Nc1ccc(F)cc1)Nc1ncc(-c2ccsc2)cn1` [Example 10, N-(4-fluorophenyl)-N′-(5-thien-3-ylpyrimidin-2-yl)urea] are more than 20 µM and more than 20 µM.
Take `CN1CCN(Cc2ccc(C(=O)Nc3cccc(Nc4ncc(-c5ccsc5)cn4)c3)cc2)CC1` [Example 11, 4-[(4-methylpiperazin-1-yl)methyl]-N-{3-[(5-thien-3-ylpyrimidin-2-yl)amino]phenyl}benzamide]: the IC50 in test [1] is 0.73 µM; in test [2], 0.22 µM.
For the molecule `CN1CCN(Cc2ccc(C(=O)Nc3ccc(Nc4ncc(-c5ccsc5)cn4)cc3)cc2)CC1` [Example 12, 4-[(4-methylpiperazin-1-yl)methyl]-N-{4-[(5-thien-3-ylpyrimidin-2-yl)amino]phenyl}benzamide], the figures for the IC50 in test [1] and in test [2] were 2.52 µM and 0.26 µM, respectively.
In the case of `CC(=O)Nc1ccc(Nc2ncc(-c3cccs3)cn2)cc1` [Example 13, N-[4-(5-thien-2-ylpyrimidin-2-ylamino]phenyl]acetamide], the IC50 in test [1] was 9.86 µM; in test [2] it was 0.44 µM.
With `CC(=O)Nc1cccc(Nc2ncc(-c3cccs3)cn2)c1` [Example 14, N-{3-[(5-thien-2-ylpyrimidin-2-yl)amino]phenyl}acetamide], the values for the IC50 in test [1] and in test [2] were 4.17 µM and 0.94 µM, respectively.
The like results for `Oc1ccc(Nc2ncc(-c3cccs3)cn2)cc1` [Example 15, 4-(5-thiophen-2-yl-pyrimidin-2-ylamino)-phenol] were, in that order, 4.61 µM and 1.7 µM.
In the same order, the values of `Nc1ccc(C(=O)Nc2ccc(Nc3ncc(-c4cccs4)cn3)cc2)cc1` [Example 16, 4-amino-N-{4-[(5-thien-2-ylpyrimidin-2-yl)amino]phenyl}benzamide] are more than 20 µM and 0.99 µM.
The like results for `O=C(O)c1cccc(Nc2ncc(-c3cccs3)cn2)c1` [Example 17, 3-[(5-thien-2-ylpyrimidin-2-yl)amino]benzoic acid] were, in that order, more than 20 µM and 15.2 µM.
Consider `O=C(Nc1ccccc1)c1cccc(Nc2ncc(-c3cccs3)cn2)c1` [Example 18, N-phenyl-3-[(5-thien-2-ylpyrimidin-2-yl)amino]benzamide], for which the IC50 in test [1] and in test [2] was more than 20 µM in each case.
On to `CC(=O)c1ccc(-c2cnc(Nc3cccc(N)c3)nc2)s1` [Example 19, 1-(5-{2-[(3-aminophenyl)amino]pyrimidin-5-yl}thien-2-yl)ethanone], for which the IC50 worked out at 8.6 µM in test [1] and 2.4 µM in test [2].
The like results for `Nc1cccc(Nc2ncc(-c3csc4ccccc34)cn2)c1` [Example 20, N-[5-(1-benzothien-3-yl)pyrimidin-2-yl]benzene-1,3-diamine] were, in that order, more than 20 µM and more than 20 µM.
Turning to `O=C(CN1CCCC1CN1CCCC1)Nc1ccc(Nc2ncc(-c3ccsc3)cn2)cc1` (stereo not shown) [Example 22, 2-[2-(pyrrolidin-1-ylmethyl)pyrrolidin-1-yl]-N-{4-[(5-thien-3-ylpyrimidin-2-yl)amino]phenyl}acetamide], the IC50 in test [1] worked out at 4.5 µM; in test [2] it was 0.41 µM.
In the same order, the values of `CN1CCN(CC(=O)Nc2ccc(Nc3ncc(-c4ccsc4)cn3)cc2)CC1` [Example 23, 2-(4-methylpiperazin-1-yl)-N-{4-[(5-thien-3-ylpyrimidin-2-yl)amino]phenyl}acetamide] are 5.1 µM and 0.55 µM.
The like results for `O=C(CNCCN1CCOCC1)Nc1ccc(Nc2ncc(-c3ccsc3)cn2)cc1` [Example 25, 2-(2-morpholinoethylamino)-N-(4-(5-(thiophen-3-yl)pyrimidin-2-ylamino)phenyl)acetamide] were, in that order, 5.4 µM and 0.47 µM.
The like results for `O=C(CN1CCOCC1)Nc1ccc(Nc2ncc(-c3ccsc3)cn2)cc1` [Example 26, 2-morpholin-4-yl-N-{4-[(5-thien-3-ylpyrimidin-2-yl)amino]phenyl}acetamide] were, in that order, 5.6 µM and 1.1 µM.
As for `CCN(CC)CC(=O)Nc1ccc(Nc2ncc(-c3ccsc3)cn2)cc1` [Example 27, N-(4-(5-(thiophen-3-yl)pyrimidin-2-ylamino)phenyl)-2-(diethylamino)acetamide], the IC50 in test [1] is 6 µM; in test [2] it was 0.55 µM.
In the same order, the values of `O=C(CN1CCC(O)CC1)Nc1ccc(Nc2ncc(-c3ccsc3)cn2)cc1` [Example 28, 2-(4-hydroxypiperidin-1-yl)-N-{4-[(5-thien-3-ylpyrimidin-2-yl)amino]phenyl}acetamide] are 4.9 µM and 0.57 µM.
